Experimental data: patent publication US20140113898A1, “BISARYLSULFONE AND DIALKYLARYLSULFONE COMPOUNDS AS CALCIUM CHANNEL BLOCKERS” (Zalicus Pharmaceuticals Ltd., priority 2010, published 2014)

How the values were obtained:
Assay type in all cases: cell-based
[1] = molecular target: T1, CaV2.2 (Homo sapiens, UniProt Q00975); assay: High-throughput CaV2.2/Kir2.3 FLIPR fluorescent assay; details: Table 4; Fluo-4 FLIPR; closed or inactivated state not stated; read-out: FLIPR data CaV2.2
T1 construct: expressed in transfected cells; host or cells: unnamed doxycycline-inducible cell line
Procedure, shortened: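 Doxycycline-induced cells moved to 29 °C on assay day and were loaded with 4.4 μM Fluo-4. They were held in 2 mM KCl (closed state) or 12.5 mM KCl (inactivated state) buffer, pH 7.4, then depolarized with 130 mM KCl. Fluorescence was read 3 min on FLIPR, and IC50 was obtained from logistic fits.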

[2] = molecular target: T2, CaV3.2 (Homo sapiens, UniProt O95180); assay: High-throughput CaV3.2/Kir2.3 T-type FLIPR fluorescent assay; details: Table 4; Fluo-4 FLIPR; closed or inactivated state not stated
T2 construct: expressed in transfected cells; host or cells: unnamed doxycycline-inducible cell line
Procedure, shortened: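 Doxycycline-induced cells loaded with Fluo-4, preincubated 20 min at 29°C with compound in 2 mM KCl (closed-state) or 7.6 mM KCl (inactivated-state) buffer, pH 7.4. Calcium entry triggered by 12 mM or 14.5 mM KCl respectively; fluorescence read 3 min by FLIPR, IC50 from logistic fit.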

[3] = molecular target: T3, CaV3.1 (Homo sapiens, UniProt O43497); assay: High-throughput CaV3.1 T-type FLIPR fluorescent assay; details: Table 4; Fluo-4 FLIPR
T3 construct: expressed in transfected cells; host or cells: unnamed doxycycline-inducible cell line
Protocol: Cells were plated in 384-well, clear-bottom, black-walled, poly-D-lysine coated plates (Becton Dickinson, Franklin Lake, N.J.) 2 days prior to use in the FLIPR assay. 100 μL of cells (2.0×10^6 cell/mL) containing doxycyline (Sigma-Aldrich, 1.5 μg/mL; to induce channel expression) were added to each well using a Multidrop (Thermo Scientific, Waltham, Mass.) and were maintained in 5% CO2 incubator at 37° C. On the morning of the assay, cells were transferred to a 5% CO2 incubator at 29° C.
Cells were washed with a wash buffer containing (in mM): 118 NaCl, 18.4 HEPES, 11.7 D-glucose, 0.05 CaCl2, 0.5 MgSO4, 1 KCl, and 1.2 KH2PO4, with the pH adjusted to 7.2 with NaOH. 4.4 μM of the fluorescent indicator dye, Fluo-4 (Invitrogen), prepared in pluronic acid
(Sigma-Aldrich), was loaded into the wells and incubated for 45 minutes at 29° C. in 5% CO2. Cells were then rinsed with the following low Ca^2+ buffer (in mM): 0.34 Na2HPO4, 4.2 NaHCO3, 0.44 KH2PO4, 0.41 MgSO4, 0.49 MgCl2-6H2O, 20 HEPES, 5.5 D-Glucose, 137 NaCl, 5.3 KCl, and 0.001 CaCl2, with 0.1% BSA and the pH adjusted to 7.2 with NaOH. Concentration-dependent response curves were generated from 5 mM stock solutions prepared in DMSO (Sigma-Aldrich) and diluted in the buffer containing low Ca^2+ and incubated for 20 minutes at 29° C. in 5% CO2. Calcium entry was evoked with an addition of (in mM): 0.34 Na2HPO4, 4.2 NaHCO3, 0.44 KH2PO4, 0.41 MgSO4, 0.49 MgCl2-6H2O, 20 HEPES, 5.5 D-Glucose, 137 NaCl, 5.3 KCl, and 6 CaCl2, with 0.1% BSA and the pH adjusted to 7.2 with NaOH. A change in the Fluo-4 fluorescence signal was assessed using FLIPR^TETRA™ instrument (Molecular Devices, Sunnyvale, Calif.) for 3 minutes following the elevation of extracellular KCl using an illumination wavelength of 470-495 nm with emissions recorded at 515-575 nm.
Concentration-dependent response curves were obtained by comparing the fluorescence signal in the presence of compound and fitted with a logistic function (1) to obtain the concentration that inhibited 50% (IC50) of the RLU signal using OriginPro v.7.5 software (OriginLab, Northampton, Mass.).
To assess the quality of the FLIPR assays the Z-factor (2) was used to quantify the suitability of the assay conditions using the following equation: […]
Data are expressed as mean and standard deviation (SD).

T3 sequence (O43497 whole entry): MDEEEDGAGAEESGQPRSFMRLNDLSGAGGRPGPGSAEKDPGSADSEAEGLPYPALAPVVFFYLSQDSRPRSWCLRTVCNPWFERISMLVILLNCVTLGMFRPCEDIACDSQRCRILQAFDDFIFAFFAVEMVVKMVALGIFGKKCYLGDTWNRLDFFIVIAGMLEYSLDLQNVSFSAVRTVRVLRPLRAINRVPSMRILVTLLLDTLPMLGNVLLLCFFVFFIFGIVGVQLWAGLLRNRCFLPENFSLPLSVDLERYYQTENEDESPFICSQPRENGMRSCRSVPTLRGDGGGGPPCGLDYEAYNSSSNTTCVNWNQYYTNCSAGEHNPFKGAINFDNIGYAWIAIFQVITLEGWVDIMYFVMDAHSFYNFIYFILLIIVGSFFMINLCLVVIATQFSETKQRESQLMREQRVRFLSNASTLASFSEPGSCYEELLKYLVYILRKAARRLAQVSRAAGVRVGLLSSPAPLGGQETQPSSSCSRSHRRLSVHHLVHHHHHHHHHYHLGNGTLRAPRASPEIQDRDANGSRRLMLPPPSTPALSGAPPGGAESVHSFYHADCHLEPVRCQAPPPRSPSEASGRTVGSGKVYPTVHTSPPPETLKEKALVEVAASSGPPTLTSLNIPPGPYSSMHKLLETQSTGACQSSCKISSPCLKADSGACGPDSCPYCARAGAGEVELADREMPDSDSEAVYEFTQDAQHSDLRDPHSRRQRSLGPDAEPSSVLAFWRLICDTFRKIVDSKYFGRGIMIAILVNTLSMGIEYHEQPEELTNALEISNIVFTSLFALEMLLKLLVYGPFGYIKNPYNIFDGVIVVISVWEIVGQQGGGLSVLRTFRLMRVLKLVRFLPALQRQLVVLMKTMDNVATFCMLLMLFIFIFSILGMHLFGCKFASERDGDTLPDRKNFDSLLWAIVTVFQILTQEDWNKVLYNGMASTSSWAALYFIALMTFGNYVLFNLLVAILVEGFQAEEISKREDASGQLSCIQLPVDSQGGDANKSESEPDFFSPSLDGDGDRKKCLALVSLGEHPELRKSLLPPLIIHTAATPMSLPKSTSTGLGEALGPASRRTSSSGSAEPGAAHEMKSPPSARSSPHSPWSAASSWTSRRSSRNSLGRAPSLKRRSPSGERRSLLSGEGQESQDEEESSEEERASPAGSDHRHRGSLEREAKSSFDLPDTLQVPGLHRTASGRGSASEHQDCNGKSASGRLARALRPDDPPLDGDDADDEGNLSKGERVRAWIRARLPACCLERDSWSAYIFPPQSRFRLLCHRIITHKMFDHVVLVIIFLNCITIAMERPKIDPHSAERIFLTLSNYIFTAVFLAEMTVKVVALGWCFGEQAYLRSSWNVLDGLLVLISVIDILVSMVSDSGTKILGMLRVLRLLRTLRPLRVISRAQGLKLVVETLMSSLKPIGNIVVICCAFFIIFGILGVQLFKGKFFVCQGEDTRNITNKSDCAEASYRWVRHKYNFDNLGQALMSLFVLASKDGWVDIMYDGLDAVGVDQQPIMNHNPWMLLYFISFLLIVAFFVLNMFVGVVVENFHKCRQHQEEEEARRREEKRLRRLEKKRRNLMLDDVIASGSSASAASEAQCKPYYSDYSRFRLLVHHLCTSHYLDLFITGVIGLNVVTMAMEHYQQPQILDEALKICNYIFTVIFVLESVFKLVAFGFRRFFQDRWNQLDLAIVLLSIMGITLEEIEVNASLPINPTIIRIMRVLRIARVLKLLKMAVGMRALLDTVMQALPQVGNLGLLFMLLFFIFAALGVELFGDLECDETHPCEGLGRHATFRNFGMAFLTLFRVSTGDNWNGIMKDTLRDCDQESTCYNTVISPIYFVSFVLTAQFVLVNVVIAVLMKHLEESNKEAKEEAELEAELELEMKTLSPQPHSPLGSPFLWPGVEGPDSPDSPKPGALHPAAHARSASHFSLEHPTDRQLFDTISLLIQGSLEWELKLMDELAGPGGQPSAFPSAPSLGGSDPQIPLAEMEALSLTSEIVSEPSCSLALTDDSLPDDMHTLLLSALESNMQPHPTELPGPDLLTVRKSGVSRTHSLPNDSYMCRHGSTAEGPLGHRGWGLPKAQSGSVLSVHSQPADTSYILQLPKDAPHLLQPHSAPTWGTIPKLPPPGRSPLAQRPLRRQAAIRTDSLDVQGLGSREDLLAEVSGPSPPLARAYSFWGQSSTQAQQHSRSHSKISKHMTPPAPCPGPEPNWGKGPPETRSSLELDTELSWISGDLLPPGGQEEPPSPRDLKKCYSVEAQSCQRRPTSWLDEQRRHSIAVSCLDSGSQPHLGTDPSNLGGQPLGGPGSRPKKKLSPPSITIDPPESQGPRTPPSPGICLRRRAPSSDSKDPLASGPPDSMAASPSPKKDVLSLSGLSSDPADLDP
T2 sequence (O95180 whole entry): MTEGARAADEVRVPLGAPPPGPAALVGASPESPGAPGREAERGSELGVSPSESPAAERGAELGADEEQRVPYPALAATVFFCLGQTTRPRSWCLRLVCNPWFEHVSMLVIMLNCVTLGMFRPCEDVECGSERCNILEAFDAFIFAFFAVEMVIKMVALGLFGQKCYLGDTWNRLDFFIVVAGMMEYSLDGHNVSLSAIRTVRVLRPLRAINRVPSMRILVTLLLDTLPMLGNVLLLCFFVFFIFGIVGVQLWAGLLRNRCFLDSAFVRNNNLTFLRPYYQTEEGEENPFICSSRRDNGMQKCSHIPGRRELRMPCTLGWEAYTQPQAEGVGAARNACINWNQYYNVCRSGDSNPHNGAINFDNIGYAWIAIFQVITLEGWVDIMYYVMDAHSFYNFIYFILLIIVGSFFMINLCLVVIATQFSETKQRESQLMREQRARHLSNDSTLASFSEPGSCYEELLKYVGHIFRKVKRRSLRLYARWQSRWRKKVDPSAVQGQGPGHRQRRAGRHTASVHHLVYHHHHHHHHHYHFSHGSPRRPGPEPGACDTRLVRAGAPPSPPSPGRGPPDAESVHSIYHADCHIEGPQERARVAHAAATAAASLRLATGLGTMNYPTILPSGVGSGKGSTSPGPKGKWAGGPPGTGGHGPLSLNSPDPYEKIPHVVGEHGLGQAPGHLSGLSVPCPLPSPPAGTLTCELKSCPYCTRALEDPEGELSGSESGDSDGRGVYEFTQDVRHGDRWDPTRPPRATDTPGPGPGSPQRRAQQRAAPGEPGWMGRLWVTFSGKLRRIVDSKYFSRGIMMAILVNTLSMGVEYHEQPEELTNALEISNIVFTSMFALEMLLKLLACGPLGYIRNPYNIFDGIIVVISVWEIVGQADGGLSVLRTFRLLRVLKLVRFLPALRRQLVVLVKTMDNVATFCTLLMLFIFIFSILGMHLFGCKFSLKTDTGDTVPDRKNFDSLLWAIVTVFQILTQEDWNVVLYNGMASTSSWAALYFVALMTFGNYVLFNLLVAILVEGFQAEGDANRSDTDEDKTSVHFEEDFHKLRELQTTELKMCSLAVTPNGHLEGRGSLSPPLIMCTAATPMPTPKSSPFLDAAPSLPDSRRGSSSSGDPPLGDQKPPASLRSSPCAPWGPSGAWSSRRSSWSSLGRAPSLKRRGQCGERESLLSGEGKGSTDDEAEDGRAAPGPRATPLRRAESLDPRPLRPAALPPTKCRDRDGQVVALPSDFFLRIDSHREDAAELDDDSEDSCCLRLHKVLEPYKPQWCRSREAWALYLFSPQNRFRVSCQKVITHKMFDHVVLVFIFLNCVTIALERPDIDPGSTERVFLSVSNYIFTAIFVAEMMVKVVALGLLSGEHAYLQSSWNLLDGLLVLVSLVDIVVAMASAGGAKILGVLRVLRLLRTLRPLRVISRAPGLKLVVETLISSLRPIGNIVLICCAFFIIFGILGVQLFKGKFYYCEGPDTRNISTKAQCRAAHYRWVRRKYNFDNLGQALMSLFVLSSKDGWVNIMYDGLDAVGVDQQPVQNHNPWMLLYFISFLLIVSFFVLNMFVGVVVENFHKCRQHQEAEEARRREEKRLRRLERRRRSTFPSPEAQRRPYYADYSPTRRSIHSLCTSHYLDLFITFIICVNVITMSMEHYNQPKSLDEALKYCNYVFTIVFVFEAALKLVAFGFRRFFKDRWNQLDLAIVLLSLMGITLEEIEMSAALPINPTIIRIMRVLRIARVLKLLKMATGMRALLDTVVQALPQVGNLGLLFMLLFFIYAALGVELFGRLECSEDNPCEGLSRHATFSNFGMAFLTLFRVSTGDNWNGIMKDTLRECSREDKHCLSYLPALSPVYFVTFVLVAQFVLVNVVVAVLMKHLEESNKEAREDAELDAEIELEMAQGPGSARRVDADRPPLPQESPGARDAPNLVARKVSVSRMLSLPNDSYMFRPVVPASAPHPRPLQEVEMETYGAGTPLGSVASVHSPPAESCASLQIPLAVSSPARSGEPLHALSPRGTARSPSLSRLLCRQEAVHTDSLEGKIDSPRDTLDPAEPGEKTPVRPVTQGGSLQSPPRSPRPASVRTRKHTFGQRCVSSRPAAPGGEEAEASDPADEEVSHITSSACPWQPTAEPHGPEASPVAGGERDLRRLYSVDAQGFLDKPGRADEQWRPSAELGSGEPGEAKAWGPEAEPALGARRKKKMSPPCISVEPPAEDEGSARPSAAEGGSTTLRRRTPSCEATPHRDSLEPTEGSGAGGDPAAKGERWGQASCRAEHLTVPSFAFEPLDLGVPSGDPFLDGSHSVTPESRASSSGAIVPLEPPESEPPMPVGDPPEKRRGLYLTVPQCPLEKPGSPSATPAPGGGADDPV

IC50 [1]	IC50 [2]	IC50 [3]	Compound
340 nM	600 nM	1850 nM	O=C(NCc1cccc(S(=O)(=O)c2cccc(C(F)(F)F)c2)c1)c1ccnn1CC(F)(F)F [Compound 29, 1-(2,2,2-trifluoroethyl)-N-(3-((3-(trifluoromethyl)phenyl)sulfonyl)benzyl)-1H-pyrazole-5-carboxamide]
310 nM	510 nM	1110 nM	COc1cc(C(=O)NCc2cccc(S(=O)(=O)c3cccc(C(F)(F)F)c3)c2)cc(Cl)n1 [Compound 30]
390 nM	730 nM	1750 nM	O=C(NCc1cccc(S(=O)(=O)c2cccc(C(F)(F)F)c2)c1)c1ccnc(C(F)(F)F)c1 [Compound 31, 2-(trifluoromethyl)-N-(3-((3-(trifluoromethyl)phenyl)sulfonyl)benzyl)isonicotinamide]
160 nM	370 nM	1400 nM	O=C(NCc1cccc(S(=O)(=O)c2cccc(C(F)(F)F)c2)c1)c1cn2cc(C(F)(F)F)ccc2n1 [Compound 32, 6-(trifluoromethyl)-N-(3-((3-(trifluoromethyl)phenyl)sulfonyl)benzyl)imidazo[1,2-a]pyridine-2-carboxamide]
100 nM	1010 nM	920 nM	CC(C)S(=O)(=O)c1cc(C(F)(F)F)cnc1C(=O)NCc1ccc(S(=O)(=O)c2cccc(C(F)(F)F)c2)cc1 [Compound 33, 3-(isopropylsulfonyl)-5-(trifluoromethyl)-N-(4-((3-(trifluoromethyl)phenyl)sulfonyl)benzyl)picolinamide]
590 nM	970 nM	1630 nM	O=C1c2cc(C(F)(F)F)nn2CCN1Cc1cccc(S(=O)(=O)c2cccc(C(F)(F)F)c2)c1 [Compound 34, 2-(trifluoromethyl)-5-(3-((3-(trifluoromethyl)phenyl)sulfonyl)benzyl)-6,7-dihydropyrazolo[1,5-a]pyrazin-4(5H)-one]
1220 nM	1740 nM	1850 nM	O=C1c2cc(C(F)(F)F)nn2CCN1Cc1ccccc1S(=O)(=O)c1cccc(C(F)(F)F)c1 [Compound 35, 2-(trifluoromethyl)-5-(2-((3-(trifluoromethyl)phenyl)sulfonyl)benzyl)-6,7-dihydropyrazolo[1,5-a]pyrazin-4(5H)-one]
830 nM	770 nM	410 nM	O=C(NCc1ccccc1S(=O)(=O)c1cccc(C(F)(F)F)c1)c1ccc(Cl)c(F)c1 [Compound 36, 4-chloro-3-fluoro-N-(2-((3-(trifluoromethyl)phenyl)sulfonyl)benzyl)benzamide]
680 nM	1610 nM	1420 nM	O=C(NCc1ccccc1S(=O)(=O)c1cccc(C(F)(F)F)c1)c1cc(F)cc(Cl)c1 [Compound 37, 3-chloro-5-fluoro-N-(2-((3-(trifluoromethyl)phenyl)sulfonyl)benzyl)benzamide]
740 nM	1250 nM	1040 nM	O=C(NCc1ccccc1S(=O)(=O)c1cccc(C(F)(F)F)c1)c1ccc(C(F)(F)F)cn1 [Compound 39, 5-(trifluoromethyl)-N-(2-((3-(trifluoromethyl)phenyl)sulfonyl)benzyl)picolinamide]
380 nM	1390 nM	920 nM	Cn1nc(C(F)(F)F)cc1C(=O)NCc1ccccc1S(=O)(=O)c1cccc(C(F)(F)F)c1 [Compound 41, 1-methyl-3-(trifluoromethyl)-N-(2-((3-(trifluoromethyl)phenyl)sulfonyl)benzyl)-1H-pyrazole-5-carboxamide]
640 nM	3240 nM	2890 nM	CS(=O)(=O)c1cc(C(=O)NCc2ccccc2S(=O)(=O)c2cccc(C(F)(F)F)c2)cc(C(F)(F)F)n1 [Compound 42, 2-(methylsulfonyl)-6-(trifluoromethyl)-N-(2-((3-(trifluoromethyl)phenyl)sulfonyl)benzyl)isonicotinamide]
670 nM	3380 nM	1420 nM	CS(=O)(=O)c1cc(C(F)(F)F)cnc1C(=O)NCc1ccccc1S(=O)(=O)c1cccc(C(F)(F)F)c1 [Compound 43, 3-(methylsulfonyl)-5-(trifluoromethyl)-N-(2-((3-(trifluoromethyl)phenyl)sulfonyl)benzyl)picolinamide]
230 nM	1030 nM	720 nM	CC(C)S(=O)(=O)c1cc(C(F)(F)F)cnc1C(=O)NCc1ccccc1S(=O)(=O)c1cccc(C(F)(F)F)c1 [Compound 44, 3-(isopropylsulfonyl)-5-(trifluoromethyl)-N-(2-((3-(trifluoromethyl)phenyl)sulfonyl)benzyl)picolinamide]
590 nM	2130 nM	270 nM	CS(=O)(=O)c1cc(C(F)(F)F)ccc1C(=O)NCc1ccccc1S(=O)(=O)c1cccc(C(F)(F)F)c1 [Compound 47, 2-(methylsulfonyl)-4-(trifluoromethyl)-N-(2-((3-(trifluoromethyl)phenyl)sulfonyl)benzyl)benzamide]
740 nM	1300 nM	680 nM	O=C(NCc1ccccc1S(=O)(=O)c1cccc(C(F)(F)F)c1)c1ccc(F)c(Cl)c1 [Compound 52, 3-chloro-4-fluoro-N-(2-((3-(trifluoromethyl)phenyl)sulfonyl)benzyl)benzamide]
260 nM	800 nM	6130 nM	O=C1c2ccc(C(F)(F)F)nc2CN1Cc1cccc(S(=O)(=O)c2cccc(C(F)(F)F)c2)c1 [Compound 57, 2-(trifluoromethyl)-6-(3-((3-(trifluoromethyl)phenyl)sulfonyl)benzyl)-6,7-dihydro-5H-pyrrolo[3,4-b]pyridin-5-one]
660 nM	3740 nM	3640 nM	N[C@H](C(=O)NCc1ccc(S(=O)(=O)c2cccc(C(F)(F)F)c2)cc1)c1ccccc1 [Compound 67, (S)-2-amino-2-phenyl-N-(4-((3-(trifluoromethyl)phenyl)sulfonyl)benzyl)acetamide]
760 nM	2320 nM	8900 nM	O=C(NCc1ccc(S(=O)(=O)c2cccc(C(F)(F)F)c2)cc1)[C@@H]1C[C@@H](C2CCCCC2)CN1 [Compound 72, (2S,4S)-4-cyclohexyl-N-(4-((3-(trifluoromethyl)phenyl)sulfonyl)benzyl)pyrrolidine-2-carboxamide]
1060 nM	1590 nM	5470 nM	O=C(NCc1ccccc1S(=O)(=O)c1cccc(C(F)(F)F)c1)[C@@H]1C[C@@H](C2CCCCC2)CN1 [Compound 75, (2S,4S)-4-cyclohexyl-N-(2-((3-(trifluoromethyl)phenyl)sulfonyl)benzyl)pyrrolidine-2-carboxamide]
680 nM	4560 nM	8240 nM	N[C@@H]1CCCC[C@H]1C(=O)NCc1ccc(S(=O)(=O)c2cccc(C(F)(F)F)c2)cc1 [Compound 81, (1R,2R)-2-amino-N-(4-((3-(trifluoromethyl)phenyl)sulfonyl)benzyl)cyclohexanecarboxamide]
170 nM	1260 nM	1690 nM	CC(C)(C(=O)NCc1ccc(S(=O)(=O)c2cccc(C(F)(F)F)c2)cn1)S(=O)(=O)c1cccc(C(F)(F)F)c1 [Compound 87, 2-methyl-2-((3-(trifluoromethyl)phenyl)sulfonyl)-N-((5-((3-(trifluoromethyl)phenyl)sulfonyl)pyridin-2-yl)methyl)propanamide]
810 nM	810 nM	900 nM	O=C(NCc1ccc(S(=O)(=O)c2cccc(C(F)(F)F)c2)cn1)c1ccc(Cl)c(F)c1 [Compound 88, 4-chloro-3-fluoro-N-((5-((3-(trifluoromethyl)phenyl)sulfonyl)pyridin-2-yl)methyl)benzamide]
